Reference: EP3436024B1, “3-BETA-METHOXY-PREG FOR USE IN THE TREATMENT OF TREATMENT RESISTANT DEPRESSION” (Mapreg, priority 2016, dated 2017)

Key:
[1] = target: T1, ERβ (Homo sapiens, UniProt Q92731); experiment: Radioligand binding assay, steroid hormone receptor ERβ; conditions: MAP4343 10 µM; 0.5 nM [^3H] Estradiol; Human recombinant Sf9 cells; second ER row
T1 construct: host or cells: Sf9 cells
Experimental: Binding affinity of 3β-methoxy-PREG (MAP4343) for receptors of steroid hormones was evaluated using radioligand binding assays.
Table 3. Affinity of MAP4343 (10 µM) for steroid hormones receptors measured by radioligand binding assays. […] None of the results met significance criteria at concentrations used.

[2] = system: Noradrenergic α2; experiment: CNS receptor binding assay, α2; conditions: MAP4343 10 µM; [^3H] RX 821002; rat cerebral cortex
Experimental: (§1) MAP4343 has been screened for in vitro affinity to 80 different CNS neurotransmitters receptors using various validated binding assays.
(§2) Table 4. In vitro affinity of MAP4343 (10 µM) for CNS neurotransmitter receptors associated with side effects and/or abuse liability. Data are the average of two individual assays for each receptor and are expressed as % inhibition of the control specific binding of the reference compound. Results showing an inhibition higher than 50% are considered to represent significant effects of the test compound.

[3] = target: Serotoninergic 5-HT1A (Homo sapiens, UniProt P08908); experiment: CNS receptor binding assay, 5-HT1A; conditions: MAP4343 10 µM; [^3H] 8-OH-DPAT; Human recombinant (HEK-293 cells); read-out: % Inhibition of control specific binding
Experimental: as §1, §2

[4] = target: Serotoninergic 5-HT7 (Homo sapiens, UniProt P34969); experiment: CNS receptor binding assay, 5-HT7; conditions: MAP4343 10 µM; [^3H] LSD; Human recombinant (CHO cells); read-out: % Inhibition of control specific binding
Experimental: as §1, §2

[5] = target: Cannabinoid CB1 (Homo sapiens, UniProt P21554); experiment: CNS receptor binding assay, CB1; conditions: MAP4343 10 µM; [^3H] CP 55940; Human recombinant (CHO cells); read-out: % Inhibition of control specific binding
Experimental: as §1, §2

[6] = target: Oppioid µ (Homo sapiens, UniProt P35372); experiment: CNS receptor binding assay, opioid µ; conditions: MAP4343 10 µM; [^3H] DAMGO; Human recombinant (HEK-293 cells); read-out: % Inhibition of control specific binding
Experimental: as §1, §2

[7] = system: 80 different CNS neurotransmitters receptors; experiment: Screen for in vitro affinity to 80 CNS neurotransmitter receptors; format: binding; conditions: MAP4343 10 µM; inhibition higher than 50% considered significant
Experimental: as §1, §2

[8] = system: Wistar Kyoto (WKY) rats; experiment: Anxious-like behavior: activity in the central square of the open-field arena, WKY rats; format: in vivo, rat; conditions: acute, MAP4343 10 mg/kg s.c., fluoxetine 10 mg/kg i.p., ketamine 30 mg/kg i.p.
Experimental: (§3) After a 6-day period of acclimatization, all experimental groups received daily successive subcutaneous (250 µl per rat) and intraperitoneal (1 ml/kg) injections. WI rats received injection of vehicle (sesame oil + saline) while WKY rats were randomly assigned to […], as follow: KWY rats receiving only vehicle (sesame oil + saline) and WKY rats treated with MAP4343 (10 mg/kg, s.c.; rats received in parallel i.p. injections of saline), fluoxetine (10 mg/kg i.p., rats received in parallel s.c. injections of sesame oil) or ketamine (30 mg/kg, i.p.; rats received in parallel s.c. injections of sesame oil) (see Figure 3).
(§4) After, a 6-day period of acclimatization, the acute phase of treatment started for 4 days during behavioral tests were performed (Figure 3). All animals were injected 1h30 before the starting of behavioral test.
The animals were individually placed in the open field arena (OFA) (70 x 100 x 70 cm), with a central square (35 x 50 cm), located in a 50 lux illuminated room and videotaped during 3 min using a computerized system (VideoTrack V2.5, ViewPoint, Lyon, France).
OFA allows firstly the evaluation of total locomotor activity (LMA) thereby measuring the total distance travelled in the arena (in cm). Secondly, measurements of the activity in the center of the arena like (i) the number of entries in the center of arena and (ii) the total time spent in the center of arena (in sec) provide cues of anxiety-like behavior (Prut and Belzung, 2003). All these behavioral parameters were instantaneously measured automatically with the VideoTrack V2.5 software from the videos.

[9] = system: Wistar Kyoto (WKY) rats; experiment: Elevated-plus maze (EPM), WKY rats; format: in vivo, rat; conditions: acute, MAP4343 10 mg/kg s.c., fluoxetine 10 mg/kg, ketamine 30 mg/kg i.p., Fig. 5D
Experimental: as §3, §4
We used the elevated-plus maze (EPM) as an assay of anxiety-related behavior in rodents (Walf and Frye, 2007). Rats were initially placed in the center of the plus-maze, consisting of two open arms (50 x 10 cm) and two closed arms (50 x 10 cm enclosed by 40 cm walls), in a 50 lux illuminated room and videotaped during 5 min using a computerized system (VideoTrack V2.5, ViewPoint, Lyon, France). The time spent in the open versus closed arms was blindly measured by two independent experimenters from the recorded video, and the open arm-index was calculated as follow: time in the open arms (sec) / [time in open arms (sec) + time in closed arms (sec)].

T1 sequence (Q92731 whole entry): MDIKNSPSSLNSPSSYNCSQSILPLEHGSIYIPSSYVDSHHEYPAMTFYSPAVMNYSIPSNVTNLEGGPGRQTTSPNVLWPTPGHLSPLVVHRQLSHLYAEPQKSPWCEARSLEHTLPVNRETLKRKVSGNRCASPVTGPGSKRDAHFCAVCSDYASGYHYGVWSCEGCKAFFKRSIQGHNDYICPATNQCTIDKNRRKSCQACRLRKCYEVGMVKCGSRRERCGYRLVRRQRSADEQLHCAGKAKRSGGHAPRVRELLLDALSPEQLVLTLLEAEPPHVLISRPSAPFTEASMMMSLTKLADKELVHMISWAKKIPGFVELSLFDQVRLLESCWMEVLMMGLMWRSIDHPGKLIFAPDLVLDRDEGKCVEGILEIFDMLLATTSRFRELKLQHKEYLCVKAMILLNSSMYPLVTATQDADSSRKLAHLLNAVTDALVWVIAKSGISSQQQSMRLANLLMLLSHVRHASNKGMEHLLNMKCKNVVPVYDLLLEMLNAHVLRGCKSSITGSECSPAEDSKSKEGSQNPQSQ
Chain of Serotoninergic 5-HT7 (P34969 whole entry): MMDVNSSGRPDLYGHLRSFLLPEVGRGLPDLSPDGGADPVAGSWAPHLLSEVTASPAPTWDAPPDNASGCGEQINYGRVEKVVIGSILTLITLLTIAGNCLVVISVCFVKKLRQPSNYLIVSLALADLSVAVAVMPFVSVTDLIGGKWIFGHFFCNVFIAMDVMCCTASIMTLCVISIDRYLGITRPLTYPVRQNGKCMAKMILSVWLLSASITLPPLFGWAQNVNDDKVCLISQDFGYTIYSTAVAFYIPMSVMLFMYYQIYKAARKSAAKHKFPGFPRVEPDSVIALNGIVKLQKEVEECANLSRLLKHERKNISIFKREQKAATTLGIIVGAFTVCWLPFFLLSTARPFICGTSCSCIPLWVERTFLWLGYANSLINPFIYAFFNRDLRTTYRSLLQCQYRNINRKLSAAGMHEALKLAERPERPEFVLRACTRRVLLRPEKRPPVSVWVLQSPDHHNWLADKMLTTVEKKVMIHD
Chain of Oppioid µ (P35372 whole entry): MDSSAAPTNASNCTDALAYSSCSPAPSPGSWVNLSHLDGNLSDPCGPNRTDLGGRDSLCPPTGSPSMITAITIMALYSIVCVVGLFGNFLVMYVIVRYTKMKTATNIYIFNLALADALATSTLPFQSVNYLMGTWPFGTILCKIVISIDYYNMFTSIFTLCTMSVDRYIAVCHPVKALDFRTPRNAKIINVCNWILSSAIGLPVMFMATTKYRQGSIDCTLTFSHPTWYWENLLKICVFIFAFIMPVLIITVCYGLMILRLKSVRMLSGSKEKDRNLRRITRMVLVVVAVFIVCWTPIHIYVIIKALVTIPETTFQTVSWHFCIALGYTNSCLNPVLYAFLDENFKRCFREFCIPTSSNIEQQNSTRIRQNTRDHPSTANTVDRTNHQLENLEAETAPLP
Chain of Serotoninergic 5-HT1A (P08908 whole entry): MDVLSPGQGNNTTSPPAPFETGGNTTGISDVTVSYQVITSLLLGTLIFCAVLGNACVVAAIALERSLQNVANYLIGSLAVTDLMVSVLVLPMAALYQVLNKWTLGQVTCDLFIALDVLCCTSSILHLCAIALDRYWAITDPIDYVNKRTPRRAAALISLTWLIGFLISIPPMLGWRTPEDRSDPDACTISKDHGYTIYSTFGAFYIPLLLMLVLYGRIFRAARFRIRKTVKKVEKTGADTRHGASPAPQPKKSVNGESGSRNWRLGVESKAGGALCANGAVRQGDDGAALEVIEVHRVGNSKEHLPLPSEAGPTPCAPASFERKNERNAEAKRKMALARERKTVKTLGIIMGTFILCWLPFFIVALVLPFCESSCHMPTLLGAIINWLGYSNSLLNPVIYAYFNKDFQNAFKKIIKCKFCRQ
Chain of Cannabinoid CB1 (P21554 whole entry): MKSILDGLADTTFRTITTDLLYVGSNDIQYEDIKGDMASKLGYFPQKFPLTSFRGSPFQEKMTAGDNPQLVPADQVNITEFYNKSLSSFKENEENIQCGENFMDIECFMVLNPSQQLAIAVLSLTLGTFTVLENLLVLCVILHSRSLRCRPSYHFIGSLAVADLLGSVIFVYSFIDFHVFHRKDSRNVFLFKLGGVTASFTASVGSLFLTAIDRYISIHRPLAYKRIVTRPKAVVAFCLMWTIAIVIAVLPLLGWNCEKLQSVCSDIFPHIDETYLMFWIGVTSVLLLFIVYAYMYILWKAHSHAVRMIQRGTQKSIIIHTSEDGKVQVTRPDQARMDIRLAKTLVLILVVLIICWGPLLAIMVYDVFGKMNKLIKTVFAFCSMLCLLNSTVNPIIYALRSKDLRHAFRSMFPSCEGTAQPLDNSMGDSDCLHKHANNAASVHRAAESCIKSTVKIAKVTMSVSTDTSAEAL

For `CO[C@H]1CC[C@@]2(C)C(=CC[C@H]3[C@@H]4CC[C@H](C(C)=O)[C@@]4(C)CC[C@@H]32)C1` (stereo in doubt) [MAP4343, 3β-methoxy-pregna-5-ene-20-one], the “% inhibition” value [1] was 16%, the inhibition at 10 µM [1] was < 25% and the “% Inhibition of control specific binding” value [2] was 7%. For the same compound, the inhibition at 10 µM [3] was 2%, the inhibition at 10 µM [4] was -11% and the inhibition at 10 µM [5] was 12%. The inhibition at 10 µM [6] was 0%, the “in vitro affinity for tested receptors” value [7] was “no significant affinity for any tested receptor” and the “number of entries in the central square of OFA, change as compared to WKY receiving only vehicle” value ([8]; Fig. 5B) was “+289%”. For the same compound, the “time spent in the center of open-field, change as compared to WKY receiving vehicle” value ([8]; Fig. 5C) was “did not modify” and the “open-arm (OA) index, change when compared to WKY receiving vehicle alone” value [9] was 165%.
